Experimental data from US20070213359A1 (ACADIA Pharmaceuticals Inc., priority 2005, published 2007).
pKi: −log10 of the molar value. Like-named read-outs stand apart in the source and are kept apart here.

What was measured:
[1] = target: T1, GHSR1a receptor (Homo sapiens, UniProt Q92847); experiment: 125I-Ghrelin binding assay; settings: displacement of 125I-ghrelin (0.053 nM), membranes of HEK293 cells transfected with GHSR1a, Cheng-Prussoff, '—' not defined; for Ki: read-out: Binding pKi (converted); for pKi: Binding pKi
T1 construct: expressed in transfected cells; host or cells: HEK293 (membranes)
T1 sequence (Q92847 whole entry): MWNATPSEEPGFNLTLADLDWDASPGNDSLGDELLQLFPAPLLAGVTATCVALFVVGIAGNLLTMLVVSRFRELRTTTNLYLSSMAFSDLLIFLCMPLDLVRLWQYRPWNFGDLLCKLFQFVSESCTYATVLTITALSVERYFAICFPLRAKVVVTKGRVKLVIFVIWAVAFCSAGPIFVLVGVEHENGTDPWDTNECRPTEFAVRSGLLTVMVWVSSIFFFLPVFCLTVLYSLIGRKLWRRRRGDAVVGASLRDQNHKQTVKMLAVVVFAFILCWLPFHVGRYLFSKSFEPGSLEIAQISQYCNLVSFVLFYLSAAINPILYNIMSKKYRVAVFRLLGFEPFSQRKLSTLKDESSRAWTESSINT
Method: Plasmid DNA containing the GHSR1a receptor (12.5 ug/dish) in 0.675 ml DMEM was transfected into the cells by mixing with 180 ul PolyFect, 15 min later mixing in 2.25 ml 10% CS/DMEM, and transferring the mixture into the dish. At 16-18 h post transfection, medium was replaced with 25 ml fresh 10% FCS/1% PSG/DMEM to each dish for another 18-20 h. At approximately 48 hours post-transfection, cells were harvested in ice-cold membrane buffer (20 mM HEPES, 6 mM MgCl2, 1 mM EDTA, pH to 7.2) using a cell scraper, and pelleted by centrifugation.
Pelleted cells were added to a nitrogen cavitation chamber and 900 bar of pressure applied for 30 min. The pressure was slowly released the cavitated cells collected in 50 ml falcon tubes. The tubes were centrifuged at 1000 rpm, 4° C. for 10 min, and the supernatant collected. This centrifugation and collection was repeated two more times until the supernatant was free of precipitate (membranes are still in suspension). The supernatant was poured into a 50 ml centrifuge tube and centrifuged at 10.000 rpm, 4° C. for 20 min. The supernatant was discarded and the pellet re-suspended in 750 μl membrane binding buffer using a chilled 1 ml syringe with 25G5/8 needle to re-suspend membranes. The protein concentration was determined using the BioRad Protein Assay Dye Reagent according to the manufacturers instructions. The protein concentration was adjusted to 5 mg/ml and aliquots snap-frozed and stored at −80 C until use.
Membranes were thawed rapidly; diluted with binding buffer (25 mM Hepes+5 mM MgCl2, 1 mM CaCl2, 2.5 mM EDTA and 0.2% BSA) to a protein concentration of 0.8 ug/30 ul and placed on ice. 96-well plates (U-bottom wells) were prepared with serial dilutions (8 doses, 40 ul/w) of the test compounds. Membranes (30 uL/well) were then added, and incubated with test ligands for 30 min at room temperature with shaking. […] Binding was terminated by filtration through GF/B filters (presoaked with 0.1% polyethylenimine) with a Brandel 96-well harvester. The filters were washed with ice-cold binding buffer (150 ml/plate) and allowed to air-dry for 30 min. 50 ul MicroScient-20 cocktail was added to each dried well, the plates were sealed, and counted for 2 min/well using a TopCount scintillation counter (Packard).

[2] = target: Ghrelin receptor (Homo sapiens, UniProt Q92847); experiment: Receptor Selection and Amplification Technology (R-SAT) assay; type: cell-based; design: expressed in transfected cells; host or cells: NIH3T3; settings: for IC50: '—' not defined (nd used separately), read-out: RSAT pIC50 (converted); for Emax: read-out: RSAT Eff(%)
Chain of Ghrelin receptor (Q92847 whole entry): as above

[3] = negative logarithm of ligand concentration causing 50% inhibition of constitutive receptor response, transfected NIH3T3 cells
[4] = percent inhibition at saturating ligand, normalized to reference ligand Substance P analog = 100%

SMILES	Ki [1]	IC50 [2, 3]	RSAT Eff(%) [2, 4]	IC50 ([2]; […])	Emax [2]	pKi [1]	Emax [2, 4]
COc1cccc2c(C(C)=O)cn(CCCN3CCCN(Cc4ccccc4Cl)CC3)c12	10 nM	0.251 nM	128%	–	–	–	–
COc1cccc2c(C(=O)c3ccccc3)cn(CCCN3CCCN(Cc4ccccc4Cl)CC3)c12	3.98 nM	–	–	0.398 nM	98%	–	–
COc1cccc2c(C(=O)Cc3ccccc3)cn(CCCN3CCCN(Cc4ccc(F)cc4)CC3)c12	7.94 nM	–	–	0.398 nM	87%	–	–
COc1cccc2c(C(=O)Cc3ccccc3)cn(CCCN3CCCN(Cc4ccccc4Cl)CC3)c12	6.31 nM	–	–	0.501 nM	92%	–	–
COc1cccc2c(C(=O)NCc3cccc(C)c3)cn(CCCN3CCC(Oc4ccc(F)cc4)CC3)c12	–	–	–	3.16 nM	81%	7.00	–
COc1cccc2c(C(=O)C3CC3)cn(CCCN3C4CCC3CC(CCc3ccc(Cl)cc3)C4)c12 (stereo not drawn)	–	–	–	3.98 nM	103%	7.70	–
COc1cccc2c(C(=O)C3CC3)cn(CCCN3C4CCC3CC(Oc3ccc(Cl)cc3)C4)c12 (stereo not drawn)	–	–	–	3.98 nM	86%	6.80	–
CC(=O)c1cn(CCCN2CCCN(CCc3ccccc3)CC2)c2c(Br)cccc12	–	–	–	3.98 nM	98%	7.10	–
CCc1cccc2c(C(C)=O)cn(CCCN3C4CCC3CC(CCc3ccccc3)C4)c12 (stereo not drawn)	126 nM	3.98 nM	–	–	103%	–	–
CC(=O)c1cn(CCCN2CCC(Oc3ccc(Cl)cc3)CC2)c2c(Br)cccc12	100 nM	3.98 nM	–	–	–	–	105%
COc1cccc2c(C(=O)NCc3cccc(Cl)c3)cn(CCCN3C4CCC3CC(Oc3ccccc3Cl)C4)c12 (stereo not drawn)	20 nM	3.98 nM	99%	–	–	–	–
CC(=O)c1cn(CCCN2C3CCC2CC(Oc2ccc(Cl)cc2)C3)c2c(C)cccc12 (stereo not drawn)	126 nM	5.01 nM	–	–	–	–	99%
CC(=O)c1cn(CCCN2CCC(Oc3ccc(F)cc3)CC2)c2c(C)cccc12	200 nM	5.01 nM	–	–	–	–	72%
CC(=O)c1cn(CCCN2CCCN(Cc3ccccc3Cl)CC2)c2c(Br)cccc12	10 nM	5.01 nM	–	–	–	–	95%
COc1cccc2c(C(=O)NCc3cccc(C)c3)cn(CCCN3C4CCC3CC(Oc3ccccc3Cl)C4)c12 (stereo not drawn)	20 nM	5.01 nM	121%	–	–	–	–
COc1cccc2c(C(=O)c3ccccc3)cn(CCCN3C4CCC3CC(CC(=O)c3ccccc3)C4)c12 (stereo not drawn)	100 nM	–	–	5.01 nM	101%	–	–
CC(=O)c1cn(CCCN2CCCN(Cc3ccccc3Cl)CC2)c2c(C#N)cccc12	63.1 nM	6.31 nM	–	–	–	–	98%
COc1cccc2c(C(=O)c3ccccc3)cn(CCCN3CCC(Oc4ccccc4Cl)CC3)c12	158 nM	–	–	6.31 nM	79%	–	–
COc1cccc2c(C(=O)NCC(C)C)cn(CCCN3C4CCC3CC(Oc3ccc(Cl)cc3)C4)c12 (stereo not drawn)	100 nM	6.31 nM	107%	–	–	–	–
COc1cccc2c(C(=O)c3ccccc3)cn(CCCN3CCC(Oc4ccc(Cl)cc4)CC3)c12	100 nM	–	–	6.31 nM	93%	–	–
COc1cccc2c(C(C)=O)cn(CCCN3CCN(c4ncccc4C(F)(F)F)CC3)c12	1000 nM	6.31 nM	–	–	–	–	108%
COc1cccc2c(C(=O)c3ccccc3)cn(CCCN3CCN(Oc4cccc(Cl)c4)CC3)c12	7.94 nM	–	–	6.31 nM	79%	–	–
COc1cccc2c(C(C)=O)cn(CCCN3CCN(c4c(C)cccc4C)CC3)c12	1000 nM	6.31 nM	–	–	–	–	107%
COc1cccc2c(C(=O)c3ccccc3)cn(CCCN3C4CCC3CC(Oc3ccc(Cl)cc3)C4)c12 (stereo not drawn)	100 nM	–	–	7.94 nM	91%	–	–
CC(=O)c1cn(CCCN2CCC(Oc3cccc(Cl)c3)CC2)c2c(C#N)cccc12	158 nM	7.94 nM	–	–	–	–	101%
CCCCC[C@H]1C[C@H]2CC[C@@H](C1)N2CCCn1cc(C(=O)NCC(C)C)c2cccc(OC)c21	79.4 nM	7.94 nM	–	–	135%	–	–

SMILES	Ki [1]	IC50 [2, 3]	RSAT Eff(%) [2, 4]	IC50 ([2]; […])	Emax [2]	pKi [1]	Emax [2, 4]
CCCCC1CCN(CCCn2cc(C(=O)NCC(C)C)c3cccc(OC)c32)CC1	200 nM	–	–	7.94 nM	93%	–	–
COc1cccc2c(C(C)=O)cn(CCCN3CCN(c4cccc(Cl)c4)CC3)c12	501 nM	7.94 nM	–	–	–	–	99%
CC(=O)c1cn(CCCN2C3CCC2CC(CCc2ccccc2)C3)c2c(C#N)cccc12 (stereo not drawn)	39.8 nM	7.94 nM	–	–	106%	–	–
CC(=O)c1cn(CCCN2C3CCC2CC(CCc2ccccc2)C3)c2c(Br)cccc12 (stereo not drawn)	79.4 nM	7.94 nM	–	–	–	–	107%
COc1cccc2c(C(=O)NCc3cccc(Cl)c3)cn(CCCN3CCC(Oc4cccc(Cl)c4)CC3)c12	63.1 nM	7.94 nM	–	–	100%	–	–
COc1cccc2c(C(=O)NCC(C)C)cn(CCCN3CCC(Oc4ccccc4Cl)CC3)c12	63.1 nM	7.94 nM	–	–	100%	–	–
CC(=O)c1cn(CCCN2CCCN(Cc3ccccc3Cl)CC2)c2c(Cl)cccc12	79.4 nM	7.94 nM	–	–	–	–	92%
COc1cccc2c(C(=O)Cc3ccccc3)cn(CCCN3CCN(CCOc4ccc(Cl)cc4)CC3)c12	3160 nM	–	–	7.94 nM	82%	–	–
COc1cccc2c(C(C)=O)cn(CCCN3CCN(c4cccc(Cl)c4Cl)CC3)c12	398 nM	7.94 nM	–	–	–	–	103%
CCCCC1CCN(CCCn2cc(C(C)=O)c3cccc(C)c32)CC1	316 nM	7.94 nM	–	–	–	–	78%
COc1cccc2c(C(=O)NCC(C)C)cn(CCCN3C4CCC3CC(Oc3ccccc3Cl)C4)c12 (stereo not drawn)	100 nM	10 nM	116%	–	–	–	–
CC(=O)c1cn(CCCN2CCC(c3nc4ccccc4s3)CC2)c2c(Br)cccc12	200 nM	10 nM	–	–	–	–	81%
COc1cccc2c(C(C)=O)cn(CC(C)CN3CCCN(Cc4ccccc4Cl)CC3)c12 (stereo not drawn)	100 nM	10 nM	–	–	–	–	123%
COc1cccc2c(C(C)=O)cn(CCCN3C4CC[C@H]3C[C@@H](Oc3ccc(Cl)cc3)C4)c12	200 nM	–	–	10 nM	114%	–	–
COc1ccccc1C1CCN(CCCn2cc(C(=O)c3ccccc3)c3cccc(OC)c32)CC1	158 nM	–	–	12.6 nM	88%	–	–
COc1cccc2c(C(=O)c3ccccc3)cn(CCCN3C4CCC3CC(Oc3ccc(F)cc3)C4)c12 (stereo not drawn)	158 nM	–	–	12.6 nM	106%	–	–
COc1cccc2c(C(C)=O)cn(CCCN3C4CCC3CC(Oc3ccc(Cl)cc3)C4)c12 (stereo not drawn)	501 nM	12.6 nM	113%	–	–	–	–
COc1cccc2c(C(=O)NCc3cccc(Cl)c3)cn(CCCNC3Cc4ccccc4C3)c12	–	–	–	794 nM	133%	7.20	–
COc1cccc2c(C(=O)c3ccccc3)cn(CCCN3CCN(CCOc4ccc(Cl)cc4)CC3)c12	–	–	–	1000 nM	66%	6.90	–
COc1cccc2c(C(=O)NCc3cccc(C)c3)cn(CCCNCCOc3ccccc3)c12	–	–	–	–	52%	7.00	–
COc1cccc2c(C(=O)NCC(C)C)cn(CCCN3CCC(CCOc4ccc(Cl)cc4)CC3)c12	–	–	–	–	45%	6.80	–
COc1cccc2c(C(=O)NCc3cccc(Cl)c3)cn(CCCN3CCC(CCOc4ccc(Cl)cc4)CC3)c12	–	–	–	–	46%	6.60	–
CC(=O)c1c(C)n(CCCN2CCC(Oc3cccc(Cl)c3)CC2)c2c(Br)cccc12	631 nM	–	–	–	–	–	35%
CC(=O)c1cn(CCCN2CCCC(Cc3ccccc3Cl)C2)c2c(C#N)cccc12 (stereo not drawn)	794 nM	–	–	–	–	–	22%
CC(=O)c1c(C)n(CCCN2C3CCC2CC(Oc2ccc(F)cc2)C3)c2c(Br)cccc12 (stereo not drawn)	1580 nM	–	–	–	–	–	1%
